# Key:
# AMARE = test: Pre-emergence herbicidal action against AMARE; assay type: in vivo, Amaranthus retroflexus
# Procedure, shortened: (§1)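 Pre-emergence soil-surface spray of formulated compound (WP or EC; 600 to 800 l/ha; 0.2% wetting agent) over seeds sown in sandy loam. After 3 weeks under greenhouse conditions, damage is estimated visually in percent against untreated plants.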
# MATIN [1] = test: Pre-emergence herbicidal action against MATIN; assay type: in vivo, Matricaria inodora
# Procedure, shortened: as §1
# VIOTR [2] = test: Pre-emergence herbicidal action against VIOTR; assay type: in vivo, Viola tricolor
# Procedure, shortened: as §1
# ALOMY [3] = test: Pre-emergence herbicidal action against ALOMY; assay type: in vivo, Alopecurus myosuroides
# Procedure, shortened: as §1
# ALOMY [4] = test: Post-emergence herbicidal action against ALOMY; assay type: in vivo, Alopecurus myosuroides; conditions: dosage 20 g/ha, visual assessment about 3 weeks after treatment vs untreated controls
# Procedure, shortened: (§2)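 Spray, one-leaf stage: WP or EC compound in water, 600–800 l/ha, 0.2% wetting agent. Plants held about 3 weeks in the greenhouse, then visually rated in percent of kill compared with untreated controls.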
# MATIN [5] = test: Post-emergence herbicidal action against MATIN; assay type: in vivo, Matricaria inodora; conditions: dosage 20 g/ha
# Procedure, shortened: as §2
# ABUTH [6] = test: Pre-emergence herbicidal action against ABUTH; assay type: in vivo, Abutilon theophrasti
# Procedure, shortened: as §1
# POLCO [7] = test: Post-emergence herbicidal action against POLCO; assay type: in vivo, Polygonum convolvulus; conditions: dosage 20 g/ha
# Description: Seeds of monocotyledonous and dicotyledonous weed and crop plants are laid out in sandy loam soil in wood-fiber pots, covered with soil and cultivated in a greenhouse under good growth conditions. 2 to 3 weeks after sowing, the test plants are treated at the one-leaf stage. The compounds of the invention, formulated in the form of wettable powders (WP) or as emulsion concentrates (EC), are then sprayed onto the green parts of the plants in the form of an aqueous suspension or emulsion at a water application rate equivalent to 600 to 800 l/ha, with addition of 0.2% wetting agent. After the test plants have been left to stand in the greenhouse under optimal growth conditions for about 3 weeks, the action of the preparations is assessed visually in comparison to untreated controls (herbicidal action in percent (%): 100% activity=the plants have died, 0% activity=like control plants). […] The tables below illustrate, in an illustrative manner, the post-emergence herbicidal action of the compounds of the invention, the herbicidal activity being stated in percent.
# PHBPU [8] = test: Pre-emergence herbicidal action against PHBPU; assay type: in vivo, Pharbitis purpurea; conditions: dosage 80 g/ha
# Procedure, shortened: as §1
# VIOTR [9] = test: Post-emergence herbicidal action against VIOTR; assay type: in vivo, Viola tricolor
# Procedure, shortened: as §2
# AVEFA = test: Pre-emergence herbicidal action against AVEFA; assay type: in vivo, Avena fatua; conditions: 80 g/ha, pre-emergence
# Procedure, shortened: as §1
# ECHCG [10] = test: Pre-emergence herbicidal action against ECHCG; assay type: in vivo, Echinochloa crus-galli; conditions: 80 g/ha
# Procedure, shortened: as §1
# POLCO [11] = test: Pre-emergence herbicidal action against POLCO; assay type: in vivo, Polygonum convolvulus; conditions: dosage 80 g/ha
# Procedure, shortened: as §1
# ECHCG [12] = test: Post-emergence herbicidal action against ECHCG; assay type: in vivo, Echinochloa crus-galli
# Procedure, shortened: as §2
# SETVI [13] = test: Pre-emergence herbicidal action against SETVI; assay type: in vivo, Setaria viridis; conditions: dosage 80 g/ha
# Procedure, shortened: as §1
# PHBPU [14] = test: Post-emergence herbicidal action against PHBPU; assay type: in vivo, Pharbitis purpurea; conditions: dosage 20 g/ha
# Procedure, shortened: as §2
# DIGSA = test: Pre-emergence herbicidal action against DIGSA; assay type: in vivo, Digitaria sanguinalis
# Procedure, shortened: as §1
# SETVI [15] = test: Post-emergence herbicidal action against SETVI; assay type: in vivo, Setaria viridis; conditions: dosage 20 g/ha
# Procedure, shortened: as §2
# ABUTH [16] = test: Post-emergence herbicidal action against ABUTH; assay type: in vivo, Abutilon theophrasti; conditions: Abutilon theophrasti, 504 h, visual assessment about 3 weeks after treatment vs untreated controls
# Procedure, shortened: as §2
# VERPE [17] = test: Post-emergence herbicidal action against VERPE; assay type: in vivo, Veronica persica; conditions: Veronica persica, 504 h
# Procedure, shortened: as §2
# VERPE [18] = test: Pre-emergence herbicidal action against VERPE; assay type: in vivo, Veronica persica; conditions: Veronica persica, 504 h
# Procedure, shortened: as §1
# [19] = 80 g/ha, scored visually after 3 weeks vs untreated controls (100% = plants have died, 0% = like control plants)
structure (smiles),measurement,setting,value
CCn1nnnc1NC(=O)c1ccc(Br)c(C(=O)NCC2CC2)c1Cl [Example 2-180],Pre-emergence action against AMARE in %,"AMARE; 20 g/ha, scored visually after 3 weeks vs untreated controls, 100% = plants have died, 0% = like control plants",100%
same,Pre-emergence action against AMARE in %,AMARE; [19],100%
same,Pre-emergence action against MATIN in %,MATIN [1]; dosage 20 g/ha,100%
same,Pre-emergence action against MATIN in %,MATIN [1]; dosage 80 g/ha,100%
same,Pre-emergence action against VIOTR in %,VIOTR [2]; dosage 20 g/ha,100%
same,Pre-emergence action against VIOTR in %,VIOTR [2]; dosage 80 g/ha,100%
same,Pre-emergence action against ALOMY,"ALOMY [3]; 20 g/ha, scored visually after 3 weeks, 100% = plants have died, 0% = like control plants",80%
same,Pre-emergence action against ALOMY (herbicidal activity),"ALOMY [3]; 80 g/ha, pre-emergence, scored visually after 3 weeks vs untreated controls (100% = plants have died, 0% = like control plants)",100%
same,Post-emergence action against ALOMY in %,ALOMY [4],90%
same,Post-emergence action against MATIN in %,MATIN [5],80%
same,Pre-emergence action against ABUTH (herbicidal activity),ABUTH [6]; [19],100%
same,Pre-emergence action against ABUTH (herbicidal activity in percent),"ABUTH [6]; dosage 20 g/ha, scored visually after 3 weeks vs untreated controls, 100% = plants have died, 0% = like control plants",100%
same,Post-emergence action against POLCO in %,POLCO [7],100%
same,Pre-emergence action against PHBPU in %,PHBPU [8],100%
same,Post-emergence action against VIOTR in %,VIOTR [9]; 20 g/ha,100%
same,Pre-emergence action against AVEFA in %,AVEFA,80%
same,Pre-emergence action against ECHCG in %,ECHCG [10],100%
same,Pre-emergence action against POLCO in %,POLCO [11],90%
same,Post-emergence action against ECHCG in %,ECHCG [12]; dosage 20 g/ha,90%
same,Pre-emergence action against SETVI in %,SETVI [13],100%
same,Post-emergence action against PHBPU in %,PHBPU [14],90%
same,Pre-emergence action against DIGSA in %,DIGSA; dosage 20 g/ha,100%
same,Pre-emergence action against DIGSA in %,DIGSA; dosage 80 g/ha,100%
same,Post-emergence action against SETVI in %,SETVI [15],90%
CCNC(=O)c1c(C(F)F)ccc(C(=O)Nc2nnnn2C)c1OC [Example 1-73],pest or weed control at 20 g/ha,"AMARE; Amaranthus retroflexus, 504 h, 20 g/ha, scored visually after 3 weeks vs untreated controls, 100% = plants have died, 0% = like control plants",100%
same,pest or weed control at 80 g/ha,"AMARE; Amaranthus retroflexus, 504 h, 80 g/ha, scored visually after 3 weeks vs untreated controls, 100% = plants have died, 0% = like control plants",100%
same,pest or weed control at 20 g/ha,"MATIN [1]; Tripleurospermum inodorum, 504 h, dosage 20 g/ha",90%
same,pest or weed control at 80 g/ha,"MATIN [1]; Tripleurospermum inodorum, 504 h, dosage 80 g/ha",100%
same,pest or weed control at 20 g/ha,"VIOTR [2]; Viola tricolor, 504 h, dosage 20 g/ha",100%
same,pest or weed control at 80 g/ha,"VIOTR [2]; Viola tricolor, 504 h, dosage 80 g/ha",100%
same,pest or weed control at 80 g/ha,"ALOMY [3]; Alopecurus myosuroides, 504 h, 80 g/ha, pre-emergence, scored visually after 3 weeks vs untreated controls (100% = plants have died, 0% = like control plants)",80%
same,pest or weed control at 20 g/ha,"MATIN [5]; Tripleurospermum inodorum, 504 h",80%
same,pest or weed control at 80 g/ha,"ABUTH [6]; Abutilon theophrasti, 504 h, 80 g/ha, scored visually after 3 weeks vs untreated controls (100% = plants have died, 0% = like control plants)",100%
same,pest or weed control at 20 g/ha,"ABUTH [6]; Abutilon theophrasti, 504 h, dosage 20 g/ha, scored visually after 3 weeks vs untreated controls, 100% = plants have died, 0% = like control plants, read-out: Pre-emergence action against ABUTH (herbicidal activity in percent)",100%
same,pest or weed control at 20 g/ha,"POLCO [7]; Fallopia convolvulus, 504 h",80%
same,pest or weed control at 5 g/ha,"VIOTR [9]; Viola tricolor, 504 h, 5 g/ha",80%
same,pest or weed control at 20 g/ha,"VIOTR [9]; Viola tricolor, 504 h, 20 g/ha",80%
same,pest or weed control at 80 g/ha,"ECHCG [10]; Echinochloa crus-galli, 504 h",100%
same,pest or weed control at 5 g/ha,"ECHCG [12]; Echinochloa crus-galli, 504 h, dosage 5 g/ha",80%
same,pest or weed control at 20 g/ha,"ECHCG [12]; Echinochloa crus-galli, 504 h, dosage 20 g/ha",80%
same,pest or weed control at 80 g/ha,"SETVI [13]; Setaria viridis, 504 h",100%
same,pest or weed control at 5 g/ha,ABUTH [16]; dosage 5 g/ha,80%
same,pest or weed control at 20 g/ha,ABUTH [16]; dosage 20 g/ha,80%
same,pest or weed control at 5 g/ha,VERPE [17]; 5 g/ha,80%
same,pest or weed control at 20 g/ha,VERPE [17]; 20 g/ha,80%
same,pest or weed control at 20 g/ha,"DIGSA; Digitaria sanguinalis, 504 h, dosage 20 g/ha",90%
same,pest or weed control at 80 g/ha,"DIGSA; Digitaria sanguinalis, 504 h, dosage 80 g/ha",100%
same,pest or weed control at 20 g/ha,VERPE [18]; dosage 20 g/ha,80%
same,pest or weed control at 80 g/ha,VERPE [18]; dosage 80 g/ha,100%

# Source: US12655116B2, “Substituted isophthalic acid diamides” (Bayer Aktiengesellschaft, priority 2020, dated 2026)
